Assay results: ChEMBL document CHEMBL5614463, “Discovery of Imidazo[1,2-a]pyrazine Derivatives as Potent ENPP1 Inhibitors” (J Med Chem, 2024)

Columns and labels:
[1] = molecular target: T1, Ectonucleotide pyrophosphatase/phosphodiesterase family member 3 (Homo sapiens, UniProt O14638); experiment: Inhibition of recombinant human ENPP3 using p-Nph-5'-TMP as substrate by absorbance based analysis
T1 sequence (O14638 whole entry): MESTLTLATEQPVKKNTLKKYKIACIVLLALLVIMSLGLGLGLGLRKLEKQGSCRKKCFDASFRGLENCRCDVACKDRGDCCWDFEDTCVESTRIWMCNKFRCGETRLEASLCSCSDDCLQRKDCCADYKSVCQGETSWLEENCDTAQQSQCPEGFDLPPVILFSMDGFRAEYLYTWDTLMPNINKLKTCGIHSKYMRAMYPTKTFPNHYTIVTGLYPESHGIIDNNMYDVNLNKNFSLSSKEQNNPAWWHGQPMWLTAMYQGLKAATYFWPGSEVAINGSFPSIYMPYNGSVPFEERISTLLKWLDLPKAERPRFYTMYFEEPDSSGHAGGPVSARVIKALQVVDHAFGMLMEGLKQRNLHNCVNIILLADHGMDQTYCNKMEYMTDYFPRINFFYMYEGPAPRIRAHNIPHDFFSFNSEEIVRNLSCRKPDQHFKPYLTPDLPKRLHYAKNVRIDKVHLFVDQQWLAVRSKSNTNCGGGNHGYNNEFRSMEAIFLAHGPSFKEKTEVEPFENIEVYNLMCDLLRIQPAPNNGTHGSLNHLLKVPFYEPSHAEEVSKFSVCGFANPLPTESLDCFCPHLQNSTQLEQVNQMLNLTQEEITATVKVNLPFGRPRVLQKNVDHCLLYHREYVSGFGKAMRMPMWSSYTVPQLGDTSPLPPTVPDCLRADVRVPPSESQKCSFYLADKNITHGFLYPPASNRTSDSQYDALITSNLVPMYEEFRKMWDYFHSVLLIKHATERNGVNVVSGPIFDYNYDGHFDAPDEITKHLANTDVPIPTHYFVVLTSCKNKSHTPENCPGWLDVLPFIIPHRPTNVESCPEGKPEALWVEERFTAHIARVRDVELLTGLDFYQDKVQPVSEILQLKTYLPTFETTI

[2] = molecular target: Autotaxin (Mus musculus, UniProt Q9R1E6); experiment: Inhibition of N-terminal recombinant mouse ENPP2 […] extracted from HEK293F cells using p-Nph-5'-TMP as substrate by absorbance based analysis; assay type: cell-free

Row | IC50 [1] [µM] | IC50 [2] [µM] | Compound
1 | 2.52 | > 10 | COc1cccc(F)c1-c1nc(C(=O)Nc2cc(F)ccc2N2CCC(NS(N)(=O)=O)CC2)cn2ccnc12
2 | 1.27 | > 10 | COc1ccc2c(-c3ccc(CNS(N)(=O)=O)cc3)ccnc2c1
